The structures appear in SMILES notation.

Our source for the EC50 values is US8574563B2 (Bristol-Myers Squibb Company, priority 2006, dated 2013).

The first test deals with HCV 1b-377-neo replicon cells. The test can be described thus: HCV replicon assay, HCV 1b-377-neo replicon cells (1b FRET). Type of test: cell-based, Hepatitis C virus genotype 1b. The note with it: HCV 1b-377-neo replicon cells; HCV 1b genotype; read-out: EC50 range against HCV 1b (Table 2, Range). The method in brief: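 FRET-based replicon assay in HCV 1b-377-neo cells, including a comparison line carrying the NS5A Y2065H mutation that confers resistance to a reference compound.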
On the technique in general: A replicon is a self-replicating genome or part of one, used to study replication in cells.
On to `CCC[C@H](NC(=O)OC)C(=O)N1CCC[C@H]1c1ncc(-c2ccc(-c3ccc(-c4cnc([C@@H]5CCCN5C(=O)[C@@H](NC(=O)OC)C(C)C)[nH]4)cc3)cc2)[nH]1` [Example M75, methyl ((1S)-1-(((2S)-2-(5-(4′-(2-((2S)-1-((2S)-2-((methoxycarbonyl)amino)-3-methylbutanoyl)-2-pyrrolidinyl)-1H-imidazol-5-yl)-4-biphenylyl)-1H-imidazol-2-yl)-1-pyrrolidinyl)carbonyl)butyl) carbamate], for which the EC50 was 1 to 99 nM.

Staying with this test, now noted: Hepatitis C virus, HCV 1b-377-neo replicon cells; HCV 1b genotype; read-out: EC50 range against HCV 1b (Table 2, Range).
Consider `COC(=O)N[C@@H](C(=O)N1CCC[C@H]1c1ncc(-c2ccc(-c3ccc(-c4[nH]c([C@@H]5CCCN5C(=O)[C@H](NC(=O)OC)c5ccccc5)nc4C(=O)OCc4ccccc4)cc3)cc2)[nH]1)c1ccccc1` [Example J21, benzyl 2-((2S)-1-((2R)-2-((methoxycarbonyl)amino)-2-phenylacetyl)-2-pyrrolidinyl)-5-(4′-(2-((2S)-1-((2R)-2-((methoxycarbonyl)amino)-2-phenylacetyl)-2-pyrrolidinyl)-1H-imidazol-5-yl)-4-biphenylyl)-1H-imidazole-4-carboxylate], for which the EC50 lay in the range of 0.001 to 0.999 nM. The same measure, in the same setting: then `COC(=O)N[C@@H](C(=O)N1CCC[C@H]1c1ncc(-c2ccc(-c3ccc(-c4cnc([C@@H]5CCCN5C(=O)[C@@H](c5ccccc5)N(C)C)[nH]4)cc3)cc2)[nH]1)c1ccccc1Cl` [Example 107-40, methyl ((1R)-1-(2-chlorophenyl)-2-((2S)-2-(5-(4′-(2-((2S)-1-((2R)-2-(dimethylamino)-2-phenylacetyl)-2-pyrrolidinyl)-1H-imidazol-5-yl)-4-biphenylyl)-1H-imidazol-2-yl)-1-pyrrolidinyl)-2-oxoethyl) carbamate], with 0.001 to 0.999 nM; and `CC(=O)N[C@@H](C(=O)N1CCC[C@H]1c1ncc(-c2ccc(-c3ccc(-c4cnc([C@@H]5CCCN5C(=O)[C@H](NC(C)=O)c5ccccc5)[nH]4)cn3)cc2)[nH]1)c1ccccc1` [Example 139, N-((1R)-2-((2S)-2-(5-(6-(4-(2-((2S)-1-((2R)-2-acetamido-2-phenylacetyl)-2-pyrrolidinyl)-1H-imidazol-5-yl)phenyl)-3-pyridinyl)-1H-imidazol-2-yl)-1-pyrrolidinyl)-2-oxo-1-phenylethyl)acetamide], with 0.001 to 0.999 nM. On the same count and under the same terms, under `CO[C@@H](C(=O)N1CCC[C@H]1c1ncc(-c2ccc(-c3ccc(-c4cnc([C@@H]5CCCN5C(=O)[C@H](OC)c5ccccc5)[nH]4)cn3)cc2)[nH]1)c1ccccc1` [Example 135, 5-(2-((2S)-1-((2R)-2-methoxy-2-phenylacetyl)-2-pyrrolidinyl)-1H-imidazol-5-yl)-2-(4-(2-((2S)-1-((2R)-2-methoxy-2-phenylacetyl)-2-pyrrolidinyl)-1H-imidazol-5-yl)phenyl)pyridine] stands 0.001 to 0.999 nM; under `CN(C)C(C(=O)N1CCC[C@H]1c1ncc(-c2ccc(-c3ccc(-c4cnc([C@@H]5CCCN5C(=O)[C@@H](c5ccccc5)N(C)C)[nH]4)cc3)cc2)[nH]1)c1ccccn1` (stereo partly drawn) [Example 94-46, 2-((2S)-2-(5-(4′-(2-((2S)-1-((2R)-2-(dimethylamino)-2-phenylacetyl)-2-pyrrolidinyl)-1H-imidazol-5-yl)-4-biphenylyl)-1H-imidazol-2-yl)-1-pyrrolidinyl)-N,N-dimethyl-2-oxo-1-(2-pyridinyl)ethanamine], 0.001 to 0.999 nM.

`CCN(CC)[C@@H](C(=O)N1CCC[C@H]1c1ncc(-c2ccc(-c3ccc(-c4cnc([C@@H]5CC(F)(F)CN5C(=O)[C@@H](c5ccccc5)N(CC)CC)[nH]4)cc3)cc2)[nH]1)c1ccccc1` (mixture of isomers) [OL-13, rac-(1R)-2-((2S)-2-(4-(4′-(2-((2S)-1-((2R)-2-(diethylamino)-2-phenylacetyl)-4,4-difluoro-2-pyrrolidinyl)-1H-imidazol-4-yl)-4-biphenylyl)-1H-imidazol-2-yl)-1-pyrrolidinyl)-N,N-diethyl-2-oxo-1-phenylethanamine]: the EC50 lay within 0.001 to 0.999 nM. Same read-out and setting: then `COC(=O)N[C@H](C(=O)N1CCC[C@H]1c1ncc(-c2ccc(-c3ccc(-c4nc([C@@H]5CCCN5C(=O)[C@@H](NC(=O)OC)[C@@H](C)OC)[nH]c4C)cc3)cc2)[nH]1)C(C)OC` (stereo in doubt) [Example E5f, methyl ((1S,2R)-2-methoxy-1-(((2S)-2-(4-(4′-(2-((2S)-1-(N-(methoxycarbonyl)-O-methyl-L-threonyl)-2-pyrrolidinyl)-4-methyl-1H-imidazol-5-yl)-4-biphenylyl)-1H-imidazol-2-yl)-1-pyrrolidinyl)carbonyl)propyl)carbamate], with 0.001 to 0.999 nM. Consider `COC(=O)N[C@@H](C(=O)N1[C@@H]2C[C@@H]2C[C@H]1c1nc(-c2ccc(-c3ccc(-c4c[nH]c([C@@H]5C[C@H]6C[C@H]6N5C(=O)[C@H](NC(=O)OC)c5ccccc5)n4)cc3)cc2)c[nH]1)c1ccccc1` [Example M137, dimethyl (4,4′-biphenyl-diylbis(1H-imidazole-4,2-diyl(1R,3S,5R)-2-azabicyclo[3.1.0]hexane-3,2-diyl((1R)-2-oxo-1-phenyl-2,1-ethanediyl)))biscarbamate], for which the EC50 is 0.001 to 0.999 nM.

In the case of `CN(C)C(=O)N[C@@H](C(=O)N1CCC[C@H]1c1nc(-c2ccc(-c3ccc(-c4c[nH]c([C@@H]5CCCN5C(=O)[C@H](NC(=O)N(C)C)c5ccccc5)n4)cc3)cc2)c[nH]1)c1ccccc1` [Example 24-4a, N′,N′′′-(4,4′-biphenyldiylbis(1H-imidazole-4,2-diyl(2S)-2,1-pyrrolidinediyl((1R)-2-oxo-1-phenyl-2,1-ethanediyl)))bis(1,1-dimethylurea)], the EC50 was 0.001 to 0.999 nM.

Consider `COC(=O)N[C@@H](CC(=O)N1CCN(C)CC1)C(=O)N1CCC[C@H]1c1ncc(-c2ccc(-c3ccc(-c4cnc([C@@H]5CCCN5C(=O)[C@@H](NC(=O)OC)C(C)C)[nH]4)cc3)cc2)[nH]1` [Example M112, methyl ((1S)-1-(((2S)-2-(5-(4′-(2-((2S)-1-((2S)-2-((methoxycarbonyl)amino)-4-(4-methyl-1-piperazinyl)-4-oxobutanoyl)-2-pyrrolidinyl)-1H-imidazol-5-yl)-4-biphenylyl)-1H-imidazol-2-yl)-1-pyrrolidinyl)carbonyl)-2-methylpropyl)carbamate], for which the half-maximal effective concentration (EC50) is 1 to 99 nM. As for `COC(=O)N[C@H]1CCC[C@@H]1C(=O)N1CCC[C@H]1c1ncc(-c2ccc(-c3ccc(-c4cnc([C@@H]5CCCN5C(=O)[C@H]5CCC[C@@H]5NC(=O)OC)[nH]4)cc3)cc2)[nH]1` [cj-155, dimethyl (4,4′-biphenyldiylbis(1H-imidazole-5,2-diyl(2S)-2,1-pyrrolidinediylcarbonyl(1S,2S)-2,1-cyclopentanediyl))biscarbamate], the EC50 was in the range of 1 to 99 nM. Same read-out and setting: under `Cc1cc(CC(=O)N2CCC[C@H]2c2ncc(-c3ccc(-c4ccc(-c5cnc([C@@H]6CCCN6C(=O)[C@@H](c6ccccc6)N(C)C)[nH]5)cc4)cc3)[nH]2)n[nH]1` [Example 94-19, (1R)-N,N-dimethyl-2-((2S)-2-(5-(4′-(2-((2S)-1-((5-methyl-1H-pyrazol-3-yl)acetyl)-2-pyrrolidinyl)-1H-imidazol-5-yl)-4-biphenylyl)-1H-imidazol-2-yl)-1-pyrrolidinyl)-2-oxo-1-phenylethanamine] stands 0.001 to 0.999 nM.

Usually EC50 stands for the midpoint of the concentration-response curve.
